Laboratory results published in PubChem BioAssay (NCI).
Values joined by “and” are separate entries in the source; they are usually repeats but may differ in a detail not shown here. Equal entries are not always repeated.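 Step 1: Grow cells in 96-well plates. Step 2: Expose to compound for 48 hours at 5 concentrations. Step 3: Interpolate endpoints linearly; if unreached, use highest concentration. GI50 = concentration required for 50% inhibition of growth. TGI: total growth inhibition.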

Columns and labels:
Test in all cases: DTP human tumour cell line panel, 48 h
KM12 colon = tested on: KM12 colon
KM20L2 colon = tested on: KM20L2 colon
M19-MEL melanoma = tested on: M19-MEL melanoma
A549 NSCLC = tested on: A549 NSCLC
K-562 leukemia = tested on: K-562 leukemia
NCI-H522 lung = tested on: NCI-H522 lung
MALME-3M melanoma = tested on: MALME-3M melanoma
MDA-MB-231 breast = tested on: MDA-MB-231 breast
NCI/ADR-RES ovarian = tested on: NCI/ADR-RES ovarian
BT-549 breast = tested on: BT-549 breast

Row | SMILES | TGI (KM12 colon) | TGI (KM20L2 colon) | TGI (M19-MEL melanoma) | TGI (A549 NSCLC) | TGI (K-562 leukemia) | TGI (NCI-H522 lung) | TGI (MALME-3M melanoma) | GI50 (KM12 colon) [µM] | GI50 (MDA-MB-231 breast) [µM] | TGI (MDA-MB-231 breast) [µM] | GI50 (A549 NSCLC) [µM] | GI50 (K-562 leukemia) | GI50 (NCI/ADR-RES ovarian) [µM] | TGI (NCI/ADR-RES ovarian) [µM] | GI50 (NCI-H522 lung) [µM] | GI50 (BT-549 breast) [µM] | TGI (BT-549 breast) [µM] | GI50 (MALME-3M melanoma) | GI50 (M19-MEL melanoma)
1 | O=c1/c(=C/c2ccccc2[N+](=O)[O-])sc2nnc(-c3ccco3)n12 | 33.4 µM | > 100 µM | 38.3 µM | 60.3 µM | > 100 µM | 32.9 µM | 47.1 µM | – | – | – | – | – | – | – | – | – | – | – | –
2 | Cc1ccc(SC2c3ccc(C)cc3Oc3nc(N)c(C#N)c(N)c32)cc1 (stereo unspecified) | 6.6 µM | – | – | 17.3 µM | 12.4 µM | 3.11 µM | 3.6 µM | 2.36 | 1.67 | 3.29 | 4.9 | 2.79 µM | 2.79 | 9.73 | 1.67 | 1.63 | 3.25 | 1.77 µM | –
3 | COc1ccc(Sc2[nH]c(C(C)=O)c3ccccc23)cc1 | 19.7 µM | – | – | 51.3 µM | 14.7 µM | 36.1 µM | 51.3 µM | 6.49 | 11.4 | 29.5 | 4 | 2.65 µM | 11.8 | 31.8 | 10.2 | 3.13 | 17.4 | 17.8 µM | –
4 | C[N+](C)(C)CC1CCCc2ccccc2C1=O (stereo unspecified) | 24.8 µM | – | – | 5.72 µM and 36.6 µM | 6.72 µM and 1.02 µM | 3.23 µM and 2.36 µM | 12 µM | 5.1 | – | 30.6 | 18.6 | 0.303 µM | 22.4 | 54 | 0.861 | – | 33.4 | – | –
5 | CCOC(=O)c1ccc(NC(=O)Oc2ccc3c(C)cc(=O)oc3c2)cc1 | > 100 µM | – | – | > 100 µM | 66.7 µM | 66.7 µM | > 100 µM | – | – | 82.8 | – | – | – | > 100 | – | – | 89.5 | – | –
6 | OC(CC1SCCCS1)c1ccccc1 (stereo unspecified) | > 100 µM | > 100 µM | > 100 µM | > 100 µM | > 100 µM | > 100 µM | > 100 µM | – | – | – | – | – | – | – | – | – | – | – | –
7 | CC(=O)N(C(C)=O)c1ncc(-n2nc(-c3ccccc3)cc2-c2ccccc2)c(-c2ccccc2)n1 | > 10 µM | – | – | > 10 µM | > 10 µM | > 10 µM | > 10 µM | – | – | > 10 | – | – | – | > 10 | – | – | > 10 | – | –
8 | CC(=O)OC1COC(Oc2c(C)c3c4c(c2O)[C@@H](C)CC[C@@H]4[C@@H](C)C[C@H]3C=C(C)C)C(O)C1OC(C)=O (stereo partly specified) | 36.4 µM | – | – | 32.8 µM | 32.8 µM | 35 µM | 32.3 µM | 17.4 | 16.2 | 31.9 | 16 | 12.5 µM | 9.2 | 23.7 | 17.6 | 26.9 | 69.7 | 15.2 µM | –
9 | Cc1cc(Cl)cc(OCCn2cc(F)cn2)c1-c1nc(N)nc2c1CN(C(=O)NCC(C)(F)F)C2 | 0.459 µM | – | – | > 100 µM | > 100 µM | > 100 µM | > 100 µM | 0.0508 | 0.257 | > 100 | 0.116 | 0.0519 µM | 53.1 | > 100 | 0.0781 | 50.3 | > 100 | 0.0684 µM | –
10 | COC(=O)C(C(=O)c1ccccc1)C(C(=O)C(=O)Nc1ccc(OC)cc1OC)C(=O)C(=O)c1ccc(C)cc1 (stereo unspecified) | > 100 µM | > 100 µM | > 100 µM | > 100 µM | > 100 µM | > 100 µM | > 100 µM | – | – | – | – | – | – | – | – | – | – | – | –
11 | Cc1cn2c(=O)c3ncn(C4OC(CO)C(O)C4O)c3n(C)c2n1 (stereo unspecified) | > 100 µM | > 100 µM | > 100 µM | > 100 µM | > 100 µM | > 100 µM | > 100 µM | – | – | – | – | – | – | – | – | – | – | – | –
12 | CCOC(=O)C1=CN(C)C=C(C(=O)OCC)C1c1cc(Br)c(OCC)c(OC)c1 | > 100 µM | – | – | > 100 µM | > 100 µM | > 100 µM | > 100 µM | 35 | 45.4 | > 100 | 81.7 | > 100 µM | > 100 | > 100 | > 100 | > 100 | > 100 | > 100 µM | –
13 | Clc1ccc2c(c1)[nH]c1c2nc2ccccn21 | 35.7 µM and 32 µM | 74.9 µM and 28.7 µM | > 100 µM and 47.6 µM | > 100 µM and 74.2 µM | 74.8 µM and 37.3 µM | 45.6 µM and 39.6 µM | > 100 µM and 35.7 µM | – | – | – | – | 23.9 µM and 3.96 µM | – | – | – | – | – | > 100 µM and 17.5 µM | 42.3 µM and 20.1 µM
14 | COc1ccc2occ(CCC(=O)O)c2c1 | – | > 100 µM | > 100 µM | > 100 µM | > 100 µM | – | – | – | – | – | – | – | – | – | – | – | – | – | –
15 | CCC12CCCN(Cc3ccccc3)C1c1c(n(C)c3ccccc13)CC2 (stereo unspecified) | > 253 µM | > 253 µM | > 253 µM | > 25.3 µM | > 253 µM | 220 µM | > 253 µM | – | – | – | – | – | – | – | – | – | – | – | –
16 | COc1ccc(OC)c2c1[nH]c(=O)c1c3ccccc3cn21 | 2.89 µM | – | – | 2.37 µM | 3.12 µM | 3.48 µM | 3.32 µM | 1.29 | 1.4 | 2.86 | 1.02 | 0.692 µM | 1.5 | 3.38 | 1.7 | 2.27 | 5.29 | 1.78 µM | –
17 | C/C=C(\C)C(=O)O[C@H]1C=CC(=O)O[C@H]1CCC(=O)[C@H](C)O | 38.8 µM | – | – | 46.7 µM | 22.2 µM | 33.7 µM | 32.1 µM | 17.8 | 16.8 | 32.4 | 20.9 | 4.92 µM | 21.1 | 56.1 | 13.5 | 19 | 36.8 | 15.5 µM | –
18 | NC(=O)/C=C/C(=O)c1c(Cl)cccc1Cl | 3.02 µM | – | – | 3.39 µM | 5.83 µM | 0.432 µM | 1.71 µM | 1.59 | 1.23 | 2.47 | 1.79 | 0.653 µM | 1.77 | 3.44 | 0.204 | 1.59 | 3.03 | 0.358 µM | –
